Where “and” joins values, the source holds several entries; their conditions need not be identical. Equal values may be shown once.
Experiments:
ADAMTS-13 = assay: Cleavage of recombinant A1-A2-A3 vWF fragment by ADAMTS-13 (Western Blot); assay type: biochemical, human; details: control; EDTA in NPP
Description: In a second type of experiment, different reaction mixtures were prepared as summarized in table 60, however, without the addition of the A1A2A3 construct. The A1A2A3 construct is a recombinant fragment consisting out of the A1, A2 and A3 domain of vWF. Mixtures were pre-incubated for 5 minutes at 37° C. after which the A1A2A3 fragment is added and the mixture is incubated in a waterbath overnight at 37° C. […] The blot was blocked for 2 hours at room temperature with blockbuffer (1:1 Odyssey blockbuffer in 1×TBS pH=7.4) and incubated with Rabbit polyclonal anti-vWF (DAKO). Alexa Fluor 680 goat anti-rabbit was used for detection. Scanning was done on the ODYSSEY to detect the degradation products.
In a second assay, a recombinant fragment containing the A1-A2-A3 domain of vWF was mixed with normal pool plasma (NPP) containing ADAMTS-13, resulting in proteolytic cleavage of the fragment which was observed by a Western Blot analysis.

[1] = test system: cyclic flow reductions (CFRs) in injured, stenosed femoral artery; assay: Folts thrombosis model in baboons: length/inhibition of cyclic flow reductions (CFRs); assay type: in vivo, baboon (Papio ursinus); details: for effective dose: Folts model
Description: The study protocol that was applied is the original Folts model and some modifications described below (Folts J D, et al, Circulation. 1976; 54:365-370). Healthy male or female baboons (Papio ursinus) were used. The animals were 8-17 kg of weight and were disease-free for at least 2 weeks prior to use. The baboons were fed with dry standard food only. The baboons were used at different time points. […] Animals were anaesthetized and body temperature is maintained at 37° C. with a heating table. A segment of a femoral artery was dissected free from surrounding tissue. A shunt was placed between the femoral vein and femoral artery to obtain high shear rates. The mean and phasic blood flow was recorded continuously throughout the experiment. Baseline flow was recorded for 20 minutes. […] A clamp was placed over the injured site to create an external stenosis. A gradual decline in blood flow due to platelet adhesion and aggregation was observed. When flow was reduced to zero, blood flow was restored by opening the clamp to dislodge the platelet-rich thrombus. This repetitive pattern of decreasing blood flow following mechanical restoration is referred to as cyclic flow reductions (CFRs). Additional endothelial injury was repeated if needed to finally obtain stable CFRs in these baboons. The number of times the thrombus needed to be dislodged determines the number of CFRs. FIG. 24 illustrates blood flow pattern during the Folts model in baboons. […] This procedure was repeated for several times with escalating doses of the test substance. The anti-thrombotic effect was quantified by comparing the length of CFRs before and after drug administration. When full inhibition of CFRs was observed, a new injury was applied in order to confirm that the inhibition was an effect of the treatment but not of a natural healing phenomenon.

[2] = test system: cyclic flow reductions (CFRs) in injured, stenosed femoral artery; assay: Folts model in baboons: Aspegic-Heparin-Plavix combination with ALX-0081 on top; assay type: in vivo, baboon (Papio ursinus); details: combined with 5 mg/kg Aspirin and 60 IU/kg Heparin
Description: Extra Heparin was administered at different time points to sustain a certain level (aPTT should be at least doubled versus control). […] The anti-thrombotic effect was quantified by comparing the length of CFRs before and after drug administration. When full inhibition of CFRs was observed, a new injury was applied. Epinephrin was injected and continued till the end of the experiment. […] (1), 3, 10 or 30 μg/kg. […] The specifications of the baboons that were used in this study are represented in table 49.

[3] = Bleeding analysis in Folts baboons (blood loss in gauzes); details: for therapeutic window in the Folts model: antithrombotic effect versus blood loss; for Average of total blood loss: sum of blood loss from the first five doses of test compound, relative to the second control gauze
Description: To analyze bleeding, an incision was made with a scalpel in the groin. This was done at 15 minutes after recording baseline flow, when the injury was made in the artery. Gauzes were inserted in the wound and replaced every 30 minutes just before each new dose of test compound. The amount of blood loss after each dose of test compound was determined by weighing the gauzes.

[4] = test system: ristocetin-induced platelet aggregation; assay: Ristocetin-induced platelet aggregation (RIPA) ex vivo in blood of treated baboons; details: baboons 4-10; further +1 mg/kg Plavix on top of 5 mg/kg Aspegic + 60 IU/kg Heparin + 1 mg/kg Plavix
Description: Platelet aggregations were performed on a Chronolog whole blood and optical Aggregometer (Model 560CA, Chronolog, USA). PRP was prepared (collected on 0.38 mol/L citrate), by centrifuging the whole blood at 1200 rpm for 5 minutes. The upper fraction containing the PRP was carefully removed. The lower fraction was further centrifuged at 3000 rpm for 10 minutes to prepare platelet poor plasma (PPP). Platelets were counted in PRP and diluted in PPP to a final concentration of 200.000 platelets per microliter. 3 mg/ml ristocetin (DAKO) was added and aggregation was measured.
The GPIb-IX-V dependent platelet aggregation through vWF is measured using ristocetin as a modulator. The % aggregation is measured at each time point and at each dose.

[5] = PT during the Folts model; assay type: in vivo, baboon (Papio ursinus); details: 240 IU/kg dose
[6] = parameters: species or system baboon (Papio ursinus); details: in vivo
Description: The aPTT values observed during the Folts model studies are summarized. […] In these animals, aPTT values are prolonged from the 30-60 IU/kg dose on, as is also observed in patients. Heparin acts as an anticoagulant by forming a complex with antithrombin and catalyzing the inhibition of activated blood coagulation factors such as XIa, IXa, Xa and thrombin (factor IIa). These factors are all involved in the intrinsic coagulation cascade of which its functionality is measured in the aPTT test.

[7] = test system: cyclic flow reductions (CFRs) in injured, stenosed femoral artery; assay: Use of vWF as an antidote for ALX-0081 in the baboon Folts model; assay type: in vivo, baboon (Papio ursinus)
Excerpt: The experimental procedure followed the original Folts model with the modifications as described in the previous example 18.
Healthy male baboons (Papio ursinus) were used in this study. The animals were 9-12 kg of weight and were disease-free for at least 2 weeks prior to use. The baboons were fed with dry standard food only.

[8] = Plavix final dose 2.5 mg/kg, individual baboons 9-12, 2.5 mg/kg
[9] = new injury applied at full inhibition of CFRs
[10] = number of experiments with inhibition / total number of independent repeats

## O=C(O)CN(CCN(CC(=O)O)CC(=O)O)CC(=O)O [EDTA]
ADAMTS-13
  effect on the cleavage of the A1-A2-A3 vWF fragment by ADAMTS-13: inhibition of cleavage of the fragment

## COC(=O)[C@H](c1ccccc1Cl)N1CCc2sccc2C1 [Plavix]
[1]; 2.5 mg/kg final dose
  time after injection at which the inhibitory effect on CFR length started: 10 min
[1]
  effective dose: 5 mg/kg
[1]; inhibition of CFRs
  effective dose: 5 mg/kg
[1]; Plavix final dose 1 mg/kg, individual baboons 9, 11, 12, 1 mg/kg
  Length of CFRs: 189 s and 132 s and 179 s
[1]; [8]
  Length of CFRs: 883 s and 400 s and 258 s and >1800 s
[1]; Plavix final dose 5 mg/kg, individual baboons 9-12
  Length of CFRs: >1800 s
[1]; Plavix final dose 10 mg/kg, individual baboons 9-12
  Length of CFRs: >1800 s
[1]; Plavix final dose 20 mg/kg, individual baboons 9-12
  Length of CFRs: >1800 s
[1]; Plavix-treated, after Epinephrin, individual baboons 9-12
  Length of CFRs: 241 s and 91 s and 83 s and 66 s
[1]; baboon 12
  final dose at which full inhibition of CFRs was obtained: 2.5 mg/kg
[1]; [9]
  CFRs upon a new injury: CFRs remained inhibited
[1]; [10]
  Inhibition of CFRs: 4/4
  Inhibition of CFRs after administration of Epinephrin: 0/4
  Inhibition of CFRs after new injury: 4/4
[1]; the other three baboons
  final dose at which full inhibition of CFRs was obtained: 5 mg/kg
[2]
  dose of Plavix required for full inhibition, fold lower than Plavix alone: 2.5 fold
[3]; Plavix final dose 1 mg/kg
  Blood loss relative to the second control gauze, Average: 1.4
[3]; Plavix final dose 1 mg/kg, individual baboons 9-12, 1 mg/kg
  Blood loss relative to the second control gauze: 0.6 and 1.3 and 1.6 and 1.2
[3]; Plavix final dose 2.5 mg/kg
  Blood loss relative to the second control gauze, Average: 1.2
[3]; [8]
  Blood loss relative to the second control gauze: 1.5 and 1.4 and 1.1 and 1.0
[3]; Plavix final dose 5 mg/kg
  Blood loss relative to the second control gauze, Average: 4.5
[3]; Plavix final dose 5 mg/kg, individual baboons 9-12, 5 mg/kg
  Blood loss relative to the second control gauze: 5.1 and 4.7 and 1.4 and 6.6
[3]; Plavix final dose 10 mg/kg
  Blood loss relative to the second control gauze, Average: 7.6
[3]; Plavix final dose 10 mg/kg, individual baboons 9-12, 10 mg/kg
  Blood loss relative to the second control gauze: 6.5 and 4.5 and 5.8 and 13.6
[3]; Plavix final dose 20 mg/kg
  Blood loss relative to the second control gauze, Average: 4.9
[3]; Plavix final dose 20 mg/kg, individual baboons 9-12, 20 mg/kg
  Blood loss relative to the second control gauze: 3.7 and 4.1 and 9.1 and 2.6
[3]
  therapeutic window in the Folts model: much more narrow
  Average of total blood loss: 19.4
[3]; at the highest dose
  Blood loss relative to the second control gauze: up to 9 fold
[4]
  % ristocetin-induced platelet aggregation: 42% and 63% and 66% and 83% and 59% and 76% and 60%

## Heparin
[1]; Heparin final dose 15 IU/kg, individual baboons 6, 7, 8
  Length of CFRs: 630 s and 208 s and 255 s
[1]; Heparin final dose 30 IU/kg, individual baboons 6, 7, 8
  Length of CFRs: 355 s and 241 s and 320 s
[1]; Heparin final dose 60 IU/kg, individual baboons 6, 7, 8
  Length of CFRs: 432 s and 246 s and 332 s
[1]; Heparin final dose 120 IU/kg, individual baboons 6, 7, 8
  Length of CFRs: 610 s and 160 s and 206 s
[1]; Heparin final dose 240 IU/kg, individual baboons 6, 7, 8
  Length of CFRs: >1800 s and 221 s and 169 s
[1]; Heparin-treated, after Epinephrin, baboons 6, 7
  Length of CFRs: 109 s and 65 s
[1]; baboon 6, first dose
  dose at which full inhibition of CFRs was obtained: 15 IU/kg
[1]; baboon 6, highest dose of 240 IU/kg
  CFRs upon a new injury: CFRs were inhibited even after a new injury
[1]; baboons 7 and 8, doses as high as 240 IU/kg
  Inhibition of CFRs: no inhibition of the CFRs could be obtained
[1]; [9]
  CFRs upon a new injury: the CFRs returned each time
[1]; [10]
  Inhibition of CFRs: 1/3
  Inhibition of CFRs after administration of Epinephrin: 0/2
  Inhibition of CFRs after new injury: 1/3
[5]
  effect on the PT time: minor increase in PT
[6]
  dose from which aPTT values are prolonged: 30-60 IU/kg

## Reopro: drug currently used in the clinic, comparator in the Folts model
[1]
  effective dose: 0.25 mg/kg
[1]; inhibition of CFRs, final dose, ALX-0081: + […] dose/kg/hour
  effective dose: 0.17 to 0.42 mg/kg
[1]; Reopro final dose 20 μg/kg, individual baboons 13, 14, 15
  Length of CFRs: 98 s and 82 s and 254 s
[1]; Reopro final dose 70 μg/kg, individual baboons 13, 14, 15
  Length of CFRs: 90 s (2×) and 248 s
[1]; Reopro final dose 170 μg/kg, individual baboons 13, 14, 15
  Length of CFRs: 90 s and >1800 s (2×)
[1]; Reopro final dose 420 μg/kg, individual baboons 13, 14, 15
  Length of CFRs: >1800 s
[1]; Reopro final dose 920 μg/kg, individual baboons 13, 14, 15
  Length of CFRs: >1800 s
[1]; Reopro-treated, after Epinephrin, individual baboons 13, 14, 15
  Length of CFRs: >1200 s
[1]; baboons 13, 14 and 15, bolus injection only
  final dose needed for full inhibition of the CFRs: 0.17 to 0.42 mg/kg
[1]; [9]
  CFRs upon a new injury: complete inhibition of the CFRs was retained
[1]; [10]
  Inhibition of CFRs: 3/3
  Inhibition of CFRs after administration of Epinephrin: 3/3
  Inhibition of CFRs after new injury: 3/3
[3]
  therapeutic window in the Folts model: much more narrow
  Average of total blood loss: 44

## vWF: vWF evaluated as an antidote for ALX-0081
[7]; CFRs returned after 250 IU plus extra 250 IU of vWF
  reversal of the activity of ALX-0081 on CFRs: can be reversed by administration of vWF
[7]; second 250 IU vWF after 30 μg/kg + 45 μg/kg/hour ALX-0081, baboons 1-3
  Length of CFRs: 246 s and 256 s and 230 s
